In US12667584B2, “Adenosine analog and its use in regulating the circadian clock” (NATIONAL INSTITUTE OF BIOLOGICAL SCIENCES, BEIJING, priority 2017, dated 2026):

Tests used:
Ruvbl2 = Ruvbl2 (Homo sapiens, UniProt Q9Y230); assay: Biotinylated compounds pull-down in U2OS cell lysate, RUVBL2; type: binding; parameters: Every 10^8 unsynchronized U2OS cells were collected, homogenized into 2 ml lysis buffer; endogenous in cells; host or cells: U2OS; conditions: competed by biotin free compound
Description: (§1) Biotinylated Compounds Pull-down, SPR analysis and Immunoprecipitation: The interaction between biotinylated compounds and their target proteins were proceeded as follow. Every 10^8 unsynchronized U2OS cells were collected, homogenized into 2 ml lysis buffer (25 mM MOPS pH7.2, 15 mM EGTA, 15 mM MgCl2, 1 mM DTT, 60 mM β-glycerophosphate, 1 mM Na3VO4, 1 mM NaF, 1 mM phenyl phosphate, Complete Protease Inhibitor Cocktail), and sonicated 6 times for 30 s at 4° C. with a Diagenode bioruptor. After sonication, NP-40 (final 0.5%) was added, incubated 15 min on ice, centrifuged at full speed for 20 min at 4° C. The resultant supernatant was firstly incubated with Pentostatin (final concentration at 5 μg/ml) for 2 h at 4° C. with rotation, and then split into 4 groups. 200 pmol cordycepin, 200 pmol DRB, and DMSO (2 groups, final 0.1%) was added respectively and further incubated for 1 h. […] The eluted protein was analyzed with western blot. The binding affinity of cordycepin against the RUVBL2 protein was measured via SPR technology using a Biacore T200 instrument (GE Healthcare) at room temperature. […] The binding kinetics and binding affinity of cordycepin against the RUVBL2 protein were determined with BIA evaluation software (GE healthcare). […] Immunoprecipitated protein complex was then washed 3 times with IP lysis buffer, boiled and analyzed with western blot. […]

CDK9 = molecular target: T1, CDK9 (Homo sapiens, UniProt P50750); assay: Biotinylated compounds pull-down in U2OS cell lysate, CDK9; type: binding
T1 construct: Every 10^8 unsynchronized U2OS cells were collected, homogenized into 2 ml lysis buffer; endogenous in cells; host or cells: U2OS
Description: as §1

T1 sequence (P50750 whole entry): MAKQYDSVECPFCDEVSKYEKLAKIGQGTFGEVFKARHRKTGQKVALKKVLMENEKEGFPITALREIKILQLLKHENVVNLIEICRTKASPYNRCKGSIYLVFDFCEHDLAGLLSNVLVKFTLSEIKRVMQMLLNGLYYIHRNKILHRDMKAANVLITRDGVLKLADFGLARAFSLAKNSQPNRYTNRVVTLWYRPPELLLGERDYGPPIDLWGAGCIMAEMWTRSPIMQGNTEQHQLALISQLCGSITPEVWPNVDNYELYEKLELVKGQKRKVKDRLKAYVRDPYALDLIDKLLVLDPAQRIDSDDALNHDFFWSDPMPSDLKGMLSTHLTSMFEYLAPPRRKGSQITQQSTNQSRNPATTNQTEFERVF
T1 sequence (O60563 whole entry partner): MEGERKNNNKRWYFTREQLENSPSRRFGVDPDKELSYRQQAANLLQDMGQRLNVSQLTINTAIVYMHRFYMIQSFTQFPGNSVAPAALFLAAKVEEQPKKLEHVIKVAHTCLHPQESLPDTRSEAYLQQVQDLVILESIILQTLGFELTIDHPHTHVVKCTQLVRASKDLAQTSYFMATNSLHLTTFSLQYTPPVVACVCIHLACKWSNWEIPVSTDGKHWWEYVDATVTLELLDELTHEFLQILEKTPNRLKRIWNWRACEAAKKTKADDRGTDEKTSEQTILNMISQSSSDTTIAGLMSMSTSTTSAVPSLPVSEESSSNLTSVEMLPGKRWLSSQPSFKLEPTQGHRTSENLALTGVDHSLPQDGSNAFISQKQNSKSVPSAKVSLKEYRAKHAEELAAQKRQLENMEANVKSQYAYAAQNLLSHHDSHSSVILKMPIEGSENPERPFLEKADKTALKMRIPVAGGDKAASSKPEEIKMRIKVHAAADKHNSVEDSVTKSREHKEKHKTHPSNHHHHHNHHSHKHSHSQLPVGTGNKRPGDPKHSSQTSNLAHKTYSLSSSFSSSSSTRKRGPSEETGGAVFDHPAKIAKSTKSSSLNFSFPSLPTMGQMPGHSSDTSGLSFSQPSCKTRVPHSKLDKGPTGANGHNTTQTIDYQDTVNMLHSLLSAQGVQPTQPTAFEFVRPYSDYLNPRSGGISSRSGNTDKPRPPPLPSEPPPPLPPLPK
Sequence of Ruvbl2 (Q9Y230 whole entry): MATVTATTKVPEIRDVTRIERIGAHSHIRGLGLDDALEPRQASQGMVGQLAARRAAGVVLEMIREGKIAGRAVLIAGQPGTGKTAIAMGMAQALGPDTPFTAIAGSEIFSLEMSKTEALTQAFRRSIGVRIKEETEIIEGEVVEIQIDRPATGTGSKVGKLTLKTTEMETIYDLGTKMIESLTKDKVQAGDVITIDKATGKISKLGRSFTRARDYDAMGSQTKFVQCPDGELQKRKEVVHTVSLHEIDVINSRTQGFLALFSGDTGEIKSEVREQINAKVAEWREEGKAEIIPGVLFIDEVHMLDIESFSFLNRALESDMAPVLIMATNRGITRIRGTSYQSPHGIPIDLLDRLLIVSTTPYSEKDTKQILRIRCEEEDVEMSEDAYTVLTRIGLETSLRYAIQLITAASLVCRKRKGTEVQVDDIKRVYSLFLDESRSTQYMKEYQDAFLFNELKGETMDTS

pull-down of Ruvbl2 (Ruvbl2): can pull-down
pull-down of CDK9 (CDK9): successfully isolated
Compound: O=C1N[C@H]2[C@H](CS[C@H]2CCCCC(=O)OC[C@H]2O[C@@H](n3cnc4cc(Cl)c(Cl)cc43)[C@H](O)[C@@H]2O)N1 [biotin-DRB, 5,6-dichloro-1-(5′-O-biotinyl-β-D-ribofuranosyl)-benzimidazole]
